Consider four compounds from publication PMC8269107, “Lipidation of Temporin-1CEb Derivatives as a Tool for Activity Improvement, Pros and Cons of the Approach” (International Journal of Molecular Sciences, 2021).

Values after ≈ are worked out from the molar mass of the structure shown. Where no end group is shown, it is not given here.

The subject of one series is keratinocytes (HaCaT). Kind of series: Cytotoxicity, MTT assay. Particulars: 24 h. Format: cell-based, human. The protocol:
(§1) Human dermal fibroblasts were obtained as previously reported from biopsies of healthy human skin of three donors undergoing a surgery. All procedures were approved by the Ethics Committee of Medicinal University of Gdansk (NKEBN/483/2011 and NKBBN/745/2019-2020). Immortalized human HaCaT keratinocytes (DKFZ Heidelberg, Germany) were obtained commercially.
(§2) Both types of cell lines were grown in Dulbecco′s Modified Eagle′s Medium (DMEM) (Sigma-Aldrich, Germany), containing […] of glucose, […] of L- glutamine, sodium pyruvate and sodium bicarbonate. Additionally, the medium was supplemented with 10% FCS (fetal calf serum, Sigma-Aldrich, Germany), 100 U/mL of penicillin and 100 μg/mL of streptomycin (Sigma-Aldrich, Germany). The cells were grown in standard culture dishes (BD, USA) in a humidified atmosphere with 5% CO2 at […], and the medium was changed every 2 days.
(§3) The fibroblasts and keratinocytes were seeded at density of 5500 cells per well into 96-well plates suspended in a medium supplemented with 10% FCS. After 24 h from seeding, the media were exchanged with serum- and antibiotic-free DMEM and tested peptides, dissolved in sterile water, which were added, yielding a final concentration ranging from 1 to 50 μg/mL. The cells were then incubated for the next 24 h. At the end of the experiment, the cells were treated with 20 μL of MTT (5 mg/mL in PBS). After 3 h of incubation in the presence of MTT dye, the DMEM medium was discarded and replaced with 6 mM HCl in isopropanol. When the purple crystals of formazan were fully solubilized, absorbance at 570 nm was read.
(In general: Formazan colour is commonly taken as a measure of viable cells.)

The subject of another series is primary fibroblasts. Put plainly: Cytotoxicity, MTT assay. Format: cell-based, human. Particulars: 24 h. The protocol:
as §1, §2, §3

The next series deals with S. epidermidis PCM 2118. Put plainly: MIC, broth microdilution. The class given is cell-based, Staphylococcus epidermidis. Particulars: S. epidermidis PCM 2118, 24 h. The source says: (§4) Escherichia coli (PCM 2057 = ATCC 25922), Staphylococcus aureus (PCM 2054 = ATCC 25923), Staphylococcus epidermidis (PCM 2118 = ATCC 14990), Bacillus subtilis (PCM 2224 = ATCC 9799), Bacillus cereus (PCM 482 = ATCC 10702) and Pseudomonas aeruginosa (PCM 499 = ATCC 10145) were obtained from the Polish Collection of Microorganisms. Fungi strains Candida albicans (CCM 8186 = CNTC 49/64), Candida glabrata (CCM 8270 = ATCC 90030), Candida parapsilosis (CCM 8260 = ATCC 22019) and Candida krusei (CCM 8271 = ATCC 6258) were acquired from the Czech Collection of Microorganisms. S. aureus USA300 (wild type strain), the reference strain of Klebsiella pneumoniae (ATCC 13883) and clinical isolates of Pseudomonas aeruginosa (PA1, PA2) collected from nonrelated patients admitted to the Stefan Zeromski Specialist Municipal Hospital in Krakow (Poland) were kindly provided by the research group of the Department of Microbiology, Faculty of Biochemistry, Biophysics and Biotechnology, Jagiellonian University, Krakow, Poland.
(§5) Luria-Bertani broth (LB) and Sabouraud Dextrose broth (SB) (Biocorp, Poland) were used for cultivation of bacteria and fungi strains, respectively. The antimicrobial activity of the peptides were analyzed through determination of MIC (minimal inhibitory concentration) parameters according to Clinical and Laboratory Standards (CLSI) guidelines developed for aerobic bacteria and yeasts, respectively. Mueller-Hinton broth (MHB) was used as the working medium for all bacterial strains, while in the case of fungi, RPMI-1640 (with L-glutamine, without sodium bicarbonate) growth medium buffered with MOPS (morpholinepropanesulfonic acid) and supplemented with 2% glucose was used. Inoculum was prepared from freshly grown cultures of microorganisms at their exponential phase of growth. […] Plates were then incubated for 24 h at 37 °C in the case of bacteria and at 35 °C in the case of fungi. After that time, absorbance was read at 590 nm with a Perkin Elmer plate reader. Cultures without peptide were treated as positive control, while uninoculated media were defined as negative control. All measurements were run at least in triplicate.
For orientation: Broth dilution looks for growth in wells or tubes with falling amounts of substance.

Another series deals with P. aeruginosa PCM 499. Kind of series: MIC, broth microdilution. Format: cell-based, Pseudomonas aeruginosa. Particulars: P. aeruginosa PCM 499, 24 h.
From the text: as §4, §5

The subject of the next series is C.krusei CCM 8271. Kind of series: MIC, broth microdilution. Format: cell-based, Candida krusei. Particulars: C.krusei CCM 8271, 24 h.
From the text: as §4, §5

The next series concerns E. coli PCM 2057. Put plainly: MIC, broth microdilution. Format: cell-based, Escherichia coli. Particulars: E. coli PCM 2057, 24 h.
From the text: as §4, §5

The next series has as its system C.parapsilosis CCM 8260. Kind of series: MIC, broth microdilution. The class given is cell-based, Candida parapsilosis. Particulars: C.parapsilosis CCM 8260, 24 h.
From the text: as §4, §5

Another series deals with S. aureus PCM 2054. Put plainly: MIC, broth microdilution. Format: cell-based, Staphylococcus aureus. Particulars: S. aureus PCM 2054, standard Mueller-Hinton broth, 24 h.
From the text: as §4, §5

A short description of the next series: Gelation in water. Format: physicochemical. Particulars: for gel formation in water: within the range of analyzed concentrations.
For the next series, the system named is C.albicans CCM 8186. Put plainly: MIC, broth microdilution. Format: cell-based, Candida albicans. Particulars: C.albicans CCM 8186, 24 h.
From the text: as §4, §5

The next series concerns C.glabrata CCM 8270. Put plainly: MIC, broth microdilution. The class given is cell-based, Candida glabrata. Particulars: C.glabrata CCM 8270, 24 h.
From the text: as §4, §5

The subject of a further series is B. cereus PCM 482. Kind of series: MIC, broth microdilution. Particulars: B. cereus PCM 482, 24 h. The class given is cell-based, Bacillus cereus.
From the text: as §4, §5

The test system of the next series is B. subtilis PCM 2224. Put plainly: MIC, broth microdilution. Particulars: B. subtilis PCM 2224, 24 h. Format: cell-based, Bacillus subtilis.
From the text: as §4, §5

Another series relates to K.pneumoniae ATCC 13883. Format: cell-based, Klebsiella pneumoniae. Particulars: ATCC 13883, 24 h.
From the text: as §4, §5

The next series relates to P. aeruginosa PA1. Format: cell-based, Pseudomonas aeruginosa. Particulars: PA1, 24 h.
From the text: as §4, §5

The next series concerns P. aeruginosa PA2. Format: cell-based, Pseudomonas aeruginosa. Particulars: PA2, 24 h.
From the text: as §4, §5

Turning to `CCCCC(=O)NCCC(=O)N[C@@H](Cc1c[nH]cn1)C(=O)O` [Compound C5-CAR, CH3(CH2)3C(O)-βAH], the IC50 in the series with keratinocytes (HaCaT) and with primary fibroblasts was greater than 50 µg/mL in each case. For the same compound, the MIC100 entry against S. epidermidis PCM 2118, against P. aeruginosa PCM 499, against C.krusei CCM 8271, in the series on E. coli PCM 2057, in the series with C.parapsilosis CCM 8260 and against S. aureus PCM 2054 was “Non-inhibitory” throughout. The MIC100 result in the series with C.albicans CCM 8186, with C.glabrata CCM 8270, against B. cereus PCM 482 and with B. subtilis PCM 2224 was “Non-inhibitory” each time. Also, the gelation in water result in “Gelation in water” (concentrations of up to 5 mg/mL) is “gelation in water was not observed”.

For `CCCCCCCCCCCC(=O)NCCC(=O)N[C@@H](Cc1c[nH]cn1)C(=O)O` [Compound C12-CAR, CH3(CH2)10C(O)-βAH], the IC50 in the series on keratinocytes (HaCaT) and in the series on primary fibroblasts was greater than 50 µg/mL throughout. Further, the MIC100 entry against S. epidermidis PCM 2118, against P. aeruginosa PCM 499, in the series with C.krusei CCM 8271, in the series with E. coli PCM 2057, against C.parapsilosis CCM 8260 and in the series with S. aureus PCM 2054 was “Non-inhibitory” each time. Also, the MIC100 result against C.albicans CCM 8186, against C.glabrata CCM 8270, against B. cereus PCM 482 and against B. subtilis PCM 2224 was “Non-inhibitory” each time. The “gelation of water solution” value in “Gelation in water” (concentration of 1 mg/mL) is given as “underwent gelation”. In “Gelation in water”, the “gel formation in water” value is “formed self-standing gels in water”.

As to `CCCCCCCCCCCCCCCC(=O)NCCC(=O)N[C@@H](Cc1c[nH]cn1)C(=O)O` [Compound C16-CAR, CH3(CH2)14C(O)-βAH], the IC50 with keratinocytes (HaCaT) stood at 25 µg/mL (≈ 53.8 µM); with primary fibroblasts it was 12.5 µg/mL (≈ 26.9 µM). Moreover, the MIC100 entry against S. epidermidis PCM 2118, in the series with P. aeruginosa PCM 499, with C.krusei CCM 8271, against E. coli PCM 2057, with C.parapsilosis CCM 8260 and against S. aureus PCM 2054 was “Non-inhibitory” throughout. The MIC100 entry in the series on C.albicans CCM 8186, in the series with C.glabrata CCM 8270, in the series on B. cereus PCM 482 and against B. subtilis PCM 2224 was “Non-inhibitory” each time. For the same compound, the “gel formation in water” value in “Gelation in water” is “formed self-standing gels in water”.

Regarding “IKKILSKIKKLL-NH2 (C-terminus assumed) [DK5, reference compound]”, the IC50 with keratinocytes (HaCaT) and in the series with primary fibroblasts was greater than 50 µg/mL in each case. Moreover, the “MIC100” value with K.pneumoniae ATCC 13883 is given as greater than 200 µg/mL; with P. aeruginosa PA1, 100 µg/mL; in the series on P. aeruginosa PA2, 100 µg/mL.

Usually IC50 stands for the concentration that inhibits the measured activity by half. A lower IC50 goes with greater potency in that assay.
